According to PubChem BioAssay (NCI):
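Tested at 5 concentrations; 48 h exposure; 96-well plates; endpoints linearly interpolated, else capped at highest concentration. The concentration for full growth arrest is given as TGI.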

Columns and labels:
Test in all cases: NCI-60 cell line screen, 48 h
[1] = system: 786-0 renal
[2] = system: A498 renal
[3] = system: A549 NSCLC
[4] = system: CAKI-1 renal
[5] = system: HCT-116 colon
[6] = system: HOP-92 NSCLC
[7] = system: K-562 leukemia
[8] = system: LOX IMVI melanoma
[9] = system: MOLT-4 leukemia
[10] = system: RPMI-8226 leukemia
[11] = system: SN12C renal
[12] = system: SR leukemia
[13] = system: UACC-257 melanoma
[14] = system: UO-31 renal
[15] = system: DU-145 prostate
[16] = system: HS 578T breast
[17] = system: MCF7 breast
[18] = system: MDA-MB-435
[19] = system: NCI/ADR-RES ovarian
[20] = system: PC-3 prostate

Q: With CC(=O)c1cccc(NC(=O)C(=O)C(C2OC(=O)c3ccccc32)[N+](=O)[O-])c1 (stereo not drawn) as the molecule, how does the TGI [1] read?
A: Its TGI is over 100 µM.

Q: And the TGI [2]?
A: The TGI was over 100 µM.

Q: And the TGI [3]?
A: The TGI was over 100 µM.

Q: What about the TGI [4] of the same molecule?
A: The TGI was over 100 µM.

Q: And the TGI [5]?
A: Its TGI is over 100 µM.

Q: What about the TGI [6] of the same molecule?
A: Its TGI is over 100 µM.

Q: And the TGI [7]?
A: Its TGI is over 100 µM.

Q: And the TGI [8]?
A: The TGI was over 100 µM.

Q: What about the TGI [9] of the same molecule?
A: Its TGI is over 100 µM.

Q: What about the TGI [10] of the same molecule?
A: Its TGI is over 100 µM.

Q: And the TGI [11]?
A: Its TGI is over 100 µM.

Q: And the TGI [12]?
A: Its TGI is over 100 µM.

Q: And the TGI [13]?
A: Its TGI is over 100 µM.

Q: What about the TGI [14] of the same molecule?
A: Its TGI is over 100 µM.

Q: How did the TGI [1] turn out when CO/N=C(/C(=O)N(C(=O)/C(=N/OC)c1csc(NC(c2ccccc2)(c2ccccc2)c2ccccc2)n1)n1cnn(CC(=O)OC(C)(C)C)c1=O)c1csc(NC(c2ccccc2)(c2ccccc2)c2ccccc2)n1 was run?
A: The TGI was over 10 µM.

Q: What about the TGI [2] of the same molecule?
A: The TGI was over 10 µM.

Q: What about the TGI [3] of the same molecule?
A: Its TGI is over 10 µM.

Q: What about the TGI [4] of the same molecule?
A: The TGI was over 10 µM.

Q: What about the TGI [15] of the same molecule?
A: The TGI was over 10 µM.

Q: And the TGI [5]?
A: The TGI was over 10 µM.

Q: What about the TGI [16] of the same molecule?
A: Its TGI is over 10 µM.

Q: And the TGI [7]?
A: The TGI was over 10 µM.

Q: What about the TGI [8] of the same molecule?
A: Its TGI is over 10 µM.

Q: And the TGI [17]?
A: Its TGI is over 10 µM.

Q: What about the TGI [18] of the same molecule?
A: Its TGI is over 10 µM.

Q: What about the TGI [9] of the same molecule?
A: The TGI was over 10 µM.

Q: And the TGI [19]?
A: Its TGI is over 10 µM.

Q: And the TGI [20]?
A: Its TGI is 3.44 µM.

Q: What about the TGI [10] of the same molecule?
A: The TGI was over 10 µM.

Q: And the TGI [11]?
A: Its TGI is over 10 µM.

Q: And the TGI [13]?
A: The TGI was over 10 µM.

Q: And the TGI [14]?
A: The TGI was over 10 µM.

Q: What does the source list for CC(=O)Nc1sc([N+](=O)[O-])cc1S(=O)(=O)c1ccc(Cl)cc1?
A: TGI [1]: > 100 µM; TGI [2]: > 27.9 µM; TGI [3]: > 54.6 µM; TGI [4]: > 20.8 µM; TGI [15]: > 40.8 µM; TGI [5]: 19.8 µM; TGI [6]: 12.7 µM; TGI [16]: 17.2 µM; TGI [7]: > 100 µM; TGI [8]: > 100 µM; TGI [17]: 9.41 µM; TGI [18]: > 53.3 µM; TGI [9]: > 50.2 µM; TGI [19]: 64 µM; TGI [20]: 10.6 µM; TGI [10]: > 100 µM; TGI [11]: > 100 µM; TGI [13]: 16.8 µM; TGI [14]: 14.7 µM

Q: Which results are given for Cc1n[nH]c(=O)n1/N=C/c1cccs1?
A: TGI [1]: > 100 µM; TGI [2]: > 100 µM; TGI [3]: > 100 µM; TGI [4]: > 100 µM; TGI [15]: > 100 µM; TGI [5]: > 100 µM; TGI [16]: > 100 µM; TGI [7]: > 100 µM; TGI [8]: > 100 µM; TGI [17]: > 100 µM; TGI [18]: > 100 µM; TGI [19]: > 100 µM; TGI [20]: > 100 µM; TGI [10]: > 100 µM; TGI [11]: > 100 µM; TGI [13]: > 100 µM; TGI [14]: > 100 µM

Q: With CCOC(=O)c1cc2c(nc1N)-c1ncccc1CC2 as the molecule, how does the TGI [1] read?
A: The TGI was over 100 µM.

Q: And the TGI [2]?
A: Its TGI is over 100 µM.

Q: And the TGI [3]?
A: Its TGI is over 100 µM.

Q: And the TGI [4]?
A: Its TGI is over 100 µM.

Q: And the TGI [5]?
A: Its TGI is over 100 µM.

Q: And the TGI [6]?
A: Its TGI is over 100 µM.

Q: What about the TGI [7] of the same molecule?
A: The TGI was over 100 µM.

Q: What about the TGI [8] of the same molecule?
A: Its TGI is over 100 µM.

Q: What about the TGI [9] of the same molecule?
A: The TGI was over 100 µM.

Q: And the TGI [10]?
A: Its TGI is 68.8 µM.

Q: And the TGI [11]?
A: The TGI was over 100 µM.

Q: And the TGI [12]?
A: Its TGI is 57 µM.

Q: And the TGI [13]?
A: Its TGI is over 100 µM.

Q: What about the TGI [14] of the same molecule?
A: Its TGI is over 100 µM.

Q: What does the source list for CSC1=NC(C(N)=O)C(N)N1C (stereo not drawn)?
A: TGI [1]: > 100 µM; TGI [2]: > 100 µM; TGI [3]: > 100 µM; TGI [4]: > 100 µM; TGI [15]: > 100 µM; TGI [5]: > 100 µM; TGI [6]: > 100 µM; TGI [16]: > 100 µM; TGI [7]: > 100 µM; TGI [8]: > 100 µM; TGI [18]: > 100 µM; TGI [9]: > 100 µM; TGI [19]: > 100 µM; TGI [20]: > 100 µM; TGI [10]: > 100 µM; TGI [11]: > 100 µM; TGI [12]: > 100 µM; TGI [13]: > 100 µM; TGI [14]: > 100 µM

Q: How did the TGI [1] turn out when CCOC(=O)N(c1ccccc1)c1cc(=O)n2ccccc2n1 was run?
A: Its TGI is over 100 µM.

Q: And the TGI [2]?
A: The TGI was over 100 µM.

Q: What about the TGI [3] of the same molecule?
A: Its TGI is over 100 µM.

Q: What about the TGI [4] of the same molecule?
A: Its TGI is over 100 µM.

Q: What about the TGI [15] of the same molecule?
A: The TGI was over 100 µM.

Q: What about the TGI [5] of the same molecule?
A: Its TGI is over 100 µM.

Q: And the TGI [7]?
A: Its TGI is over 100 µM.

Q: And the TGI [8]?
A: Its TGI is over 100 µM.

Q: And the TGI [17]?
A: The TGI was over 100 µM.

Q: What about the TGI [18] of the same molecule?
A: The TGI was over 100 µM.

Q: And the TGI [9]?
A: The TGI was over 100 µM.

Q: And the TGI [19]?
A: Its TGI is over 100 µM.

Q: And the TGI [10]?
A: Its TGI is over 100 µM.

Q: And the TGI [11]?
A: The TGI was over 100 µM.

Q: What about the TGI [12] of the same molecule?
A: Its TGI is over 100 µM.

Q: What about the TGI [13] of the same molecule?
A: The TGI was over 100 µM.

Q: What about the TGI [14] of the same molecule?
A: Its TGI is over 100 µM.
